Data from PubChem BioAssay (NCI).
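Protocol summary: plate cells (96-well), add compound at 5 concentrations, incubate 48 h, interpolate endpoints linearly. GI50: concentration for 50% inhibition of growth. TGI marks complete inhibition of growth.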

Tests used:
Test in all cases: growth of human tumour cells (NCI), 48 h
[1] = system: NCI-H522 lung
[2] = system: COLO 205 colon
[3] = system: HCT-116 colon
[4] = system: HCT-15 colon
[5] = system: OVCAR-4 ovarian
[6] = system: SW-620 colon
[7] = system: UO-31 renal
[8] = system: RPMI-8226 leukemia
[9] = system: SK-MEL-28 melanoma
[10] = system: NCI-H460 lung

SMILES	TGI [1] [µM]	TGI [2] [µM]	TGI [3] [µM]	TGI [4] [µM]	TGI [5] [µM]	TGI [6] [µM]	TGI [7] [µM]	TGI [8] [µM]	TGI [9] [µM]	TGI [10] [µM]	GI50 [1] [µM]	GI50 [2] [µM]	GI50 [3] [µM]	GI50 [4] [µM]	GI50 [5] [µM]	GI50 [6] [µM]	GI50 [7] [µM]	GI50 [8] [µM]	GI50 [9] [µM]	GI50 [10] [µM]
O=C(O)CC(C(=O)O)C1c2ccccc2-c2ccccc21 (stereo not given)	> 100	> 100	> 100	> 100	> 100	> 100	> 100	> 100	> 100	> 100										
OC(Cc1ccccc1)(Cc1ccccc1)c1ccccc1	32.3		35.8	50.4	32.4	52.2	32.4	> 100	47.3	44.4										
Nc1cc(S(=O)(=O)O)cc2cc(S(=O)(=O)O)c(N=Nc3ccc(-c4ccc(N=Nc5c(S(=O)(=O)O)cc6cc(S(=O)(=O)O)cc(N)c6c5O)cc4)cc3)c(O)c12	> 100	> 100	> 100	> 100	> 100	> 100	> 100	> 100	> 100	> 100										
O=Nc1ccc(O)c2ncccc12	3.58	30.6	3.04	12.9	24.1	18.2	13.5	99.8	17.3	12.8										
CCN(CC)C(=S)SC(=S)N(CC)CC	18.2	45	> 58.3	> 100	> 100	> 100	> 76.3	57.4	> 100	> 100										
c1ccc(-n2cnnc2-c2nsc3ccccc23)cc1		> 100	> 100	> 100	> 100	> 100	> 100	> 100	> 100	> 100										
COc1ccc(-c2nn(-c3ccc(NC(=O)Nc4ccc(Cl)c(Cl)c4)cc3)cc2-c2ccncc2)cc1Cl	5.66	5.27	11.7	> 100	> 100	> 100	> 100	3.18	68.2	8.54	1.39	2.19	1.65	1.7	1.79	3.31	1.51	0.54	2.7	2.14
CC(C)=CCc1c(O)ccc2c1OC1c3ccc(O)c(CC=C(C)C)c3OCC21 (stereo not given)	25.5	33	18.3	18.1	23.6	22.5	24	17.1	28.7	16.1										
C[C@H](C(=O)N[C@@H](Cc1ccc(-c2ccccc2)cc1)C(=O)NC1CC(C)(C)N(C)C(C)(C)C1)c1ccc(-c2ccccc2)c(F)c1		2.87		2.94	2.84		2.64		3.18	2.43		1.37		1.53	0.818		1.27		1.67	1.06
COc1cc(C(C)(C)C)cc(OC)c1C(O)(c1c(OC)cc(C(C)(C)C)cc1OC)c1c(OC)cc(C(C)(C)C)cc1OC	0.768	0.34	0.901		1.06	1.55	0.745	0.725		0.853	0.237	0.188	0.249		0.307	0.406	0.241	0.233		0.288
O=[N+]([O-])c1ccc(/C=N\Nc2ccc([N+](=O)[O-])cn2)cc1	> 100	> 100	> 100	> 100	> 100	> 100	> 100	> 100	> 100	> 100										
N=C(N)c1ccc(-c2ccc(-c3cncc4ccccc34)s2)cc1F	5.56	3.94		3.64		3.76	3.41	4.49	3.41		2.2	1.87		1.75		1.69	1.77	1.64	1.75	
Nc1ccc(OCC(O)N2C(=O)c3ccccc3C2=O)cc1 (stereo not given)	> 100	> 100	> 100	> 100	> 100	> 100	> 100	> 100	> 100	> 100										
C/C1=N\NC(=O)c2ccccc2C(=O)N/N=C(\C)c2cccc1n2.O=[N+]([O-])[O-].[Zn+2]	> 100	> 100	> 100	> 100	> 100	> 100	> 100	> 100	> 100	> 100										
